Assays:
[1] = PK experiments in rats: plasma compound (I) after oral dosing of prodrug; conditions: for Plasma concentrations / exposure of compound (I) after oral dosing of prodrug (in words): Wistar rats, doses equal to 287 μg/kg of compound (I); for Observed metabolite, in vivo PK study after oral dosing (rats): plasma
Description: For all the experiments, blood samples of approximately 0.68 mL were drawn from the tail or sublingual vein and put into K3EDTA tubes that had been pre-cooled and prepared with stabilizing solution consisting of 80 μL ascorbic acid and 40 μL 100 mM D-saccharic acid 1,4 lactone in water. The tubes were inverted gently 6-8 times to ensure thorough mixing and then placed in wet ice. The collecting tube was placed in wet ice for up to 30 minutes until centrifugation. Once removed from the wet ice the centrifugation was initiated immediately. Immediately after end of centrifugation the samples were returned to wet ice. Three sub-samples of 130 μL plasma were transferred to each of three appropriately labelled cryo tubes containing 6.5 μL pre-cooled formic acid (20%) (the tubes were pre-spiked and stored refrigerated prior to use). The tube lid was immediately replaced, and the plasma solution was thoroughly mixed by inverting gently 6-8 times. The samples were stored frozen at nominally −70° C. within 60 minutes after sampling. Centrifugation conditions at 3000 G for 10 minutes at 4° C. Plasma was placed on water-ice following collection. Final storage at approximately −70° C.
Plasma samples were analyzed by solid phase extraction or direct protein precipitation followed by UPLC-MS/MS. MS detection using electrospray in the positive ion mode with monitoring of specific mass-to-charge transitions for compound (I) using internal standards for correcting the response. The concentration-time data was analyzed, using standard software using appropriate noncompartmental techniques to obtain estimates of the derived PK parameters.
Mass spectrometer (LC-MS/MS) Waters Acquity-Sciex API 5000. Analytical column Waters BEH UPLC Phenyl 100×2.1 mm column, 1.7 μm particle size. Mobile phase A: 20 mM ammonium formate (aq)+0.5% formic acid. Mobile phase B: Acetonitrile. Gradient run from 95/5% to 2/98 in 6.1 minutes. Flow rate 0.5 mL/min. MRM monitoring (multiple reaction monitoring) of test item and the added analytical standards
Han Wistar rats were supplied by Charles River Laboratories, Sulzfeld, Germany. An artificial, automatically controlled, light and dark cycle of 12 hours was maintained. The rats received a standard laboratory diet from Brogaarden (Altromin 1324 pellets). The rats had unrestricted access to the diet.
Mass spectrometer (LC-MS/MS) Waters Acquity-Sciex API 5000. Analytical column Waters BEH UPLC Phenyl 100×2.1 mm column, 1.7 μm particle size. Mobile phase A: 20 mM ammonium formate (aq)+0.5% formic acid. Mobile phase B: Acetonitrile. Gradient run from 95/5% to 2/98 in 6.1 minutes. Flow rate 0.5 mL/min. MRM monitoring of test item and the added analytical standards.
Han Wistar rats were supplied by Charles River Laboratories, UK. An artificial, automatically controlled, light and dark cycle of 12 hours was maintained. The rats received a standard laboratory diet (Teklad 2014C Diet.). The rats had unrestricted access to the diet.
Mass spectrometer (LC-MS/MS) Waters Acquity—Waters Xevo TQ-S. Analytical column Acquity BEH C18 100×2.1 mm, 1.7 μm. Mobile phase A: 20 mM NH4—Formate+0.2% formic acid. Mobile phase B: Acetonitrile+0.2% formic acid. Gradient run from 95/5% to 5/95% in 11.0 minutes. Flow rate 0.3 mL/min. MRM monitoring of test item and the added analytical standards.
Han Wistar rats were supplied by Envigo, UK.

[2] = man, after oral dosing; cited from earlier work
[3] = biological target: T1, human 5-HT2B receptor (Homo sapiens, UniProt P41595); test: 5-HT2B radioligand binding assay ([125I](±)DOI, CHO cell membranes); conditions: read-out: 5-HT2B % at single concentration (binding affinity, % inhibition of control specific binding per footnote)
T1 construct: host or cells: CHO cells
Description: Evaluation of the affinity of compounds for the human 5-HT2B receptor was determined in a radioligand binding assay at Eurofins/Cerep (France). Membrane homogenates prepared from CHO cells expressing the human 5HT2B receptor were incubated for 60 minutes at room temperature with 0.2 nM [125I](±)DOI (1-(4-iodo-2, 5-dimethoxyphenyl)propan-2-amine) in the absence or presence of the test compound in a buffer containing 50 mM Tris-HCl (pH 7.4), 5 mM MgCl2, 10 μM pargyline and 0.1% ascorbic acid. Nonspecific binding is determined in the presence of 1 μM (±)DOI. Following incubation, the samples were filtered rapidly under vacuum through glass fiber filters (GF/B, Packard) presoaked with 0.3% polyethyleneimine (PEI) and rinsed several times with ice-cold 50 mM Tris-HCl using a 96-sample cell harvester (Unifilter, Packard). The filters were dried and counted for radioactivity in a scintillation counter (Topcount, Packard) using a scintillation cocktail (Microscint 0, Packard). The results are expressed as a percent inhibition of the control radioligand specific binding. The standard reference compound was (±)DOI, which was tested in each experiment at several concentrations to obtain a competition curve from which its IC50 is calculated.

[4] = Conversion of compounds in human plasma (incubation, LC-MS/MS); type: in vitro ADME; conditions: for Observed metabolite, incubation in human plasma: 1 μM test compound, 37° C., 0 to 6 hours
Description: Frozen human plasma was thawed and then centrifuged at 3200×g for 5 minutes to remove debris. The pH value of the supernatant was then measured and adjusted to 7.4±0.1 by adding 1% phosphoric acid or 1 N sodium hydroxide. 2 μL of dosing solution (50 μM for test compounds and 100 μM for positive control (propantheline bromide)) was mixed with 98 μL of blank plasma to achieve 1 μM test compound and 2 μM positive control of final concentration. The mixture was incubated, and samples were withdrawn from the incubations at the pre-determined time points of 0, 0.5, 1, 2, 4 and 6 hours (in duplicate) at 37° C. in water bath. At each corresponding time point 10 μL inhibitor and 20 μL ascorbic acid and 2 μL formic acid (20%) are added, and then added 400 μL of “stop solution” (200 ng/mL tolbutamide plus 200 ng/mL labetalol in 50% ACN/MeOH) to precipitate protein. The substance was mixed thoroughly and thereafter Centrifugated at 4,000 rpm for 20 minutes. Then an aliquot of supernatant (50 μL) was transferred from each well to a sample plate and mixed with 100 μL ultrapure water. The plate was shaked at 800 rpm for about 10 minutes before submitting to LC-MS/MS analysis.
Mass spectrometer (LC-MS/MS) Shimadzu LC 20-AD Shimadzu UHPLC API 4000. Analytical column ACQUITY UPLC® BEH Phenyl 1.7 μm 2.1×50 mm. Mobile phase A: 0.1% Formic Acid in Water. Mobile phase B: 0.1% Formic Acid in Acetonitrile. […] Flow rate 0.7 mL/min.

[5] = biological target: T1, human 5-HT2B receptor; test: 5-HT2B agonist activity assay (IP1 production, HTRF, transfected CHO cells); type: cell-based
Description: Evaluation of the agonist activity of compounds (I), (Ia) and (Ib) at the human 5-HT2B receptor was performed by Eurofins/Cerep (France) measuring the compound effects on inositol monophosphate (IP1) production using the HTRF detection method. Briefly, the human 5-HT2B receptor was expressed in transfected CHO cells. The cells were suspended in a buffer containing 10 mM Hepes/NaOH (pH 7.4), 4.2 mM KCl, 146 mM NaCl, 1 mM CaCl2, 0.5 mM MgCl2, 5.5 mM glucose and 50 mM LiCl, then distributed in microplates at a density of 4100 cells/well and incubated for 30 min at 37° C. in the presence of buffer (basal control), test compound or reference agonist. For stimulated control measurement, separate assay wells contained 1 μM 5-HT. Following incubation, the cells were lysed and the fluorescence acceptor (fluorophen D2-labeled IP1) and fluorescence donor (anti-IP1 antibody labeled with europium cryptate) were added. After 60 minutes at room temperature, the fluorescence transfer was measured at lambda(Ex) 337 nm and lambda (Em) 620 and 665 nm using a microplate reader (Rubystar, BMG). The IP1 concentration was determined by dividing the signal measured at 665 nm by that measured at 620 nm (ratio). The results were expressed as a percent of the control response to 1 μM 5-HT. […]

T1 sequence (P41595 whole entry): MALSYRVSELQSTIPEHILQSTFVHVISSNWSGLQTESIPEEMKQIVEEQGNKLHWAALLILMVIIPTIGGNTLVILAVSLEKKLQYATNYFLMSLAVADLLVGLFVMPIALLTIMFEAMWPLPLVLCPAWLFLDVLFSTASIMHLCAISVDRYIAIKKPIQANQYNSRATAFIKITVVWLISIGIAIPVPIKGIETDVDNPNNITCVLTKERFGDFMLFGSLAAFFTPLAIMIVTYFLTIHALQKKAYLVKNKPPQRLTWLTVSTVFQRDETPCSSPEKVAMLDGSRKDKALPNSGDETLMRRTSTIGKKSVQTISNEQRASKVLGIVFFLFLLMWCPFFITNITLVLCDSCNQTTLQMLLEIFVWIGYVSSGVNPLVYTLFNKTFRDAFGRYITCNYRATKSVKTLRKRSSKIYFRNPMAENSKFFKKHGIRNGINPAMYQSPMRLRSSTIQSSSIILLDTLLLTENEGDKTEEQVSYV

Row | SMILES | Plasma concentrations / exposure of compound (I) after oral dosing of prodrug (in words) [1] | Observed metabolite, in vivo PK study after oral dosing (rats) [1] | inhibition at 10 µM [3] | further results
1 | CCCN1CCC[C@@H]2Cc3c(ccc(OC(=O)C(C)(C)C)c3OC(=O)C(C)(C)C)C[C@H]21 [(Ic), reference compound] | extremely low |  |  | 
2 | CCCc1cc2c(s1)CN[C@@H]1CCc3cc(OC(C)=O)c(OC(C)=O)cc3[C@@H]21 [Adrogolide] |  |  |  | Oral bioavailability [2]: ~4%
3 | CCCN1CCC[C@@H]2Cc3c(ccc(OC(=O)NC)c3OC(=O)NC)C[C@H]21 [Compound (1), (4aR,10aR)-1-propyl-1,2,3,4,4a,5,10,10a-octahydrobenzo[g]quinoline-6,7-diyl bis(methylcarbamate)] |  | Compound (I) | 3% | 
4 | CCCN1CCC[C@@H]2Cc3c(ccc(OC(=O)NCC)c3OC(=O)NCC)C[C@H]21 [Compound (2), (4aR,10aR)-1-propyl-1,2,3,4,4a,5,10,10a-octahydrobenzo[g]quinoline-6,7-diyl bis(ethylcarbamate)] |  | Compound (I) | 3% | Observed metabolite, incubation in human plasma [4]: Compound (I)
5 | CCCN1CCC[C@@H]2Cc3c(ccc(OC(=O)N(C)C)c3OC(=O)N(C)C)C[C@H]21 [Compound (3), (4aR,10aR)-1-propyl-1,2,3,4,4a,5,10,10a-octahydrobenzo[g]quinoline-6,7-diyl bis(dimethylcarbamate)] |  | Compound (I) | 4% | Observed metabolite, incubation in human plasma [4]: Compound (I)
6 | CCCN1CCC[C@@H]2Cc3c(ccc(O)c3O)C[C@H]21 [Compound (I), (4aR,10aR)-1-Propyl-1,2,3,4,4a,5,10,10a-octahydro-benzo[g]quinoline-6,7-diol, reference compound] |  |  |  | Half-life in the plasma assay (in words) ([4]; human plasma incubation): short half-life
7 | CCCN1CCC[C@@H]2CC3=C(CCCC3=O)C[C@H]21 [Compound (Ia), reference compound] | early and high peak concentrations of compound (I) |  |  | 5-HT2B agonist effect at single concentration ([5]; @30 μM, percent of the control response to 1 μM 5-HT): 58%
8 | CCCN1CCC[C@@H]2Cc3c(ccc4c3OCO4)C[C@H]21 [Compound (Ib), (6aR,10aR)-7-propyl-6,6a,7,8,9,10,10a,11-octahydro-[1,3]dioxolo[4′,5′:5,6]benzo[1,2-g]quinoline, reference compound] | early and high peak concentrations of compound (I) |  |  | 5-HT2B receptor agonism (in words) ([5]; c.f. example 2 and Table 3): agonist of the 5-HT2B receptor

— patent publication US12398106B2, “Catecholamine carbamate prodrugs for use in the treatment of parkinson's disease” (H. Lundbeck A/S, priority 2019, dated 2025)
